Laboratory results published in PubChem BioAssay (NCI).
Where “and” joins values, the source holds several entries; their conditions need not be identical. Equal values may be shown once.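 96-well plates; 48 h exposure; 5 concentrations. Endpoints by linear interpolation between flanking doses. Not reached: highest tested concentration assigned. GI50 is the concentration that inhibits growth by half. The concentration for full growth arrest is given as TGI.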

Key:
Assay in all cases: growth of human tumour cells (NCI), 48 h
COLO 205 colon = tested on: COLO 205 colon
SK-MEL-28 melanoma = tested on: SK-MEL-28 melanoma
DU-145 prostate = tested on: DU-145 prostate
SK-OV-3 ovarian = tested on: SK-OV-3 ovarian
PC-3 prostate = tested on: PC-3 prostate
K-562 leukemia = tested on: K-562 leukemia
ACHN renal = tested on: ACHN renal
HCT-116 colon = tested on: HCT-116 colon
SF-268 CNS = tested on: SF-268 CNS
MALME-3M melanoma = tested on: MALME-3M melanoma

COc1cc(C(=O)NC2CCN(C)CC2)c(F)cc1Nc1ncc2c(n1)N(C1CCCC1)CC(F)(F)C(=O)N2C
GI50 (COLO 205 colon): < 0.01 µM | TGI (COLO 205 colon): 0.177 µM | GI50 (SK-MEL-28 melanoma): < 0.0209 µM | TGI (SK-MEL-28 melanoma): 16.2 µM | GI50 (DU-145 prostate): 0.0179 µM | TGI (DU-145 prostate): 11.2 µM | GI50 (SK-OV-3 ovarian): < 0.0132 µM | TGI (SK-OV-3 ovarian): 1.02 µM | GI50 (PC-3 prostate): < 0.0201 µM | TGI (PC-3 prostate): 18.3 µM | GI50 (K-562 leukemia): < 0.01 µM | TGI (K-562 leukemia): 4 µM | GI50 (ACHN renal): < 0.0378 µM | TGI (ACHN renal): 14.4 µM | GI50 (HCT-116 colon): < 0.0142 µM | TGI (HCT-116 colon): 12 µM | GI50 (SF-268 CNS): < 0.025 µM | TGI (SF-268 CNS): 12.1 µM

COc1ccc(C(=O)C(c2ccc(OC)cc2)C2(O)C(=O)Nc3c2ccc(Cl)c3C)cc1 (centres undefined)
TGI (COLO 205 colon): > 100 µM | TGI (SK-MEL-28 melanoma): > 100 µM | TGI (MALME-3M melanoma): > 100 µM | TGI (SK-OV-3 ovarian): > 100 µM | TGI (K-562 leukemia): > 100 µM | TGI (ACHN renal): > 100 µM | TGI (HCT-116 colon): > 100 µM | TGI (SF-268 CNS): > 100 µM

COc1ccc2ccccc2c1C1OC(=O)c2ccccc21 (centres undefined)
TGI (COLO 205 colon): > 100 µM | TGI (MALME-3M melanoma): > 100 µM | TGI (SK-OV-3 ovarian): > 100 µM | TGI (K-562 leukemia): > 100 µM | TGI (ACHN renal): > 100 µM | TGI (SF-268 CNS): > 100 µM

COc1ccc(OC)c(NC(=O)CCC/C(CC(=O)c2ccc(O)c(OC)c2)=N\Nc2ccc([N+](=O)[O-])cc2)c1
TGI (COLO 205 colon): > 100 µM | TGI (MALME-3M melanoma): > 100 µM | TGI (SK-OV-3 ovarian): > 100 µM | TGI (K-562 leukemia): > 100 µM | TGI (ACHN renal): > 100 µM | TGI (HCT-116 colon): > 100 µM | TGI (SF-268 CNS): > 100 µM

COc1cc(C2C(Cl)C(=O)N2NC(=O)c2ccc(N)cc2)ccc1O (centres undefined)
TGI (COLO 205 colon): 36.9 µM | TGI (SK-MEL-28 melanoma): > 100 µM | TGI (MALME-3M melanoma): 32.1 µM | TGI (SK-OV-3 ovarian): > 100 µM | TGI (K-562 leukemia): 76.2 µM | TGI (ACHN renal): > 100 µM | TGI (HCT-116 colon): 47.9 µM

COc1ccc(/C=C\c2cc(OC)c(OC)c(OC)c2)cc1OC
GI50 (COLO 205 colon): 0.11 µM | TGI (COLO 205 colon): 0.171 µM and 0.662 µM | TGI (SK-MEL-28 melanoma): > 100 µM | TGI (MALME-3M melanoma): 91.6 µM | GI50 (SK-OV-3 ovarian): 0.187 µM | TGI (SK-OV-3 ovarian): > 100 µM | TGI (PC-3 prostate): > 100 µM | GI50 (K-562 leukemia): 0.0329 µM | TGI (K-562 leukemia): 40.4 µM and 15.7 µM | GI50 (ACHN renal): 0.763 µM | TGI (ACHN renal): 40.4 µM and 85 µM | GI50 (HCT-116 colon): 0.0482 µM | TGI (HCT-116 colon): 40.4 µM and 24.4 µM | GI50 (SF-268 CNS): 0.214 µM | TGI (SF-268 CNS): 40.4 µM and > 100 µM

CCOC(=O)NC(=O)c1cn(CCCCCCOC(=O)NCCCCCCNC(=O)OCCCCCCn2cc(C(=O)NC(=O)OCC)c(=O)[nH]c2=O)c(=O)[nH]c1=O
TGI (COLO 205 colon): > 100 µM | TGI (SK-MEL-28 melanoma): > 100 µM | TGI (MALME-3M melanoma): > 100 µM | TGI (SK-OV-3 ovarian): > 100 µM | TGI (K-562 leukemia): > 100 µM | TGI (ACHN renal): > 100 µM | TGI (HCT-116 colon): > 100 µM | TGI (SF-268 CNS): > 100 µM

O=S1(=O)OCCOS(=O)(=O)C1Cc1ccccc1
TGI (COLO 205 colon): 34.8 µM | TGI (SK-MEL-28 melanoma): > 100 µM | TGI (MALME-3M melanoma): > 100 µM | TGI (SK-OV-3 ovarian): > 100 µM | TGI (K-562 leukemia): > 100 µM | TGI (ACHN renal): > 100 µM | TGI (HCT-116 colon): > 100 µM | TGI (SF-268 CNS): > 100 µM

COC(=O)CCC(NC(=S)N/N=C/c1ccco1)C(=O)OC (centres undefined)
TGI (COLO 205 colon): > 100 µM | TGI (SK-MEL-28 melanoma): > 100 µM | TGI (MALME-3M melanoma): > 100 µM | TGI (SK-OV-3 ovarian): > 100 µM | TGI (K-562 leukemia): > 100 µM | TGI (ACHN renal): > 100 µM | TGI (HCT-116 colon): > 100 µM | TGI (SF-268 CNS): > 100 µM

COC(=O)C1=CC2C(=O)OC1CC2C#N (centres undefined)
TGI (COLO 205 colon): > 100 µM | TGI (SK-MEL-28 melanoma): > 100 µM | TGI (MALME-3M melanoma): > 100 µM | TGI (SK-OV-3 ovarian): > 100 µM | TGI (K-562 leukemia): > 100 µM | TGI (ACHN renal): > 100 µM | TGI (HCT-116 colon): > 100 µM | TGI (SF-268 CNS): > 100 µM

O=C(c1ccccc1)c1cccc(C(=O)c2ccccc2)c1
TGI (COLO 205 colon): > 100 µM | TGI (SK-MEL-28 melanoma): > 100 µM | TGI (MALME-3M melanoma): > 100 µM | TGI (SK-OV-3 ovarian): > 100 µM | TGI (K-562 leukemia): > 100 µM | TGI (ACHN renal): > 100 µM | TGI (HCT-116 colon): > 100 µM | TGI (SF-268 CNS): > 100 µM

CC(=O)C1C(=O)C(=O)N(c2ccccc2C(C)C)C1=O (centres undefined)
TGI (COLO 205 colon): > 100 µM | TGI (SK-MEL-28 melanoma): > 100 µM | TGI (MALME-3M melanoma): > 100 µM | TGI (SK-OV-3 ovarian): > 100 µM | TGI (K-562 leukemia): > 100 µM | TGI (ACHN renal): > 100 µM | TGI (HCT-116 colon): > 100 µM | TGI (SF-268 CNS): > 100 µM

CC1=C2C(=CC(C)(C)C2O)C(=O)C(C)(O)C12CC2 (centres undefined)
GI50 (COLO 205 colon): 0.0191 µM | TGI (COLO 205 colon): 0.0621 µM | TGI (SK-MEL-28 melanoma): 0.0865 µM | TGI (MALME-3M melanoma): 0.0337 µM | TGI (SK-OV-3 ovarian): 0.175 µM | TGI (K-562 leukemia): 0.154 µM | TGI (ACHN renal): 0.0373 µM | TGI (HCT-116 colon): 0.188 µM | TGI (SF-268 CNS): 0.0667 µM

C[C@]12CCC3[C@@H](CC[C@@H]4c5nonc5CC[C@]34C)C1C/C(=N/O)C2=O (some centres undefined)
TGI (COLO 205 colon): > 100 µM | TGI (SK-MEL-28 melanoma): > 100 µM | TGI (MALME-3M melanoma): > 100 µM | TGI (SK-OV-3 ovarian): > 100 µM | TGI (K-562 leukemia): > 100 µM | TGI (ACHN renal): > 100 µM | TGI (HCT-116 colon): > 100 µM | TGI (SF-268 CNS): > 100 µM

C[Si](C)(C)c1ccc(-c2sc(-c3ccc([Si](C)(C)C)s3)c3c2C[Si]2(C3)Cc3c(-c4ccc([Si](C)(C)C)s4)sc(-c4ccc([Si](C)(C)C)s4)c3C2)s1
TGI (COLO 205 colon): > 100 µM | TGI (SK-MEL-28 melanoma): > 100 µM | TGI (MALME-3M melanoma): > 100 µM | TGI (SK-OV-3 ovarian): > 100 µM | TGI (K-562 leukemia): > 100 µM | TGI (ACHN renal): > 100 µM | TGI (HCT-116 colon): > 100 µM | TGI (SF-268 CNS): > 100 µM

CCSCCCN(CCCSCC)CCCSCC
TGI (COLO 205 colon): > 100 µM | TGI (SK-MEL-28 melanoma): > 100 µM | TGI (DU-145 prostate): > 100 µM | TGI (SK-OV-3 ovarian): > 100 µM | TGI (PC-3 prostate): > 100 µM | TGI (K-562 leukemia): > 100 µM | TGI (HCT-116 colon): > 100 µM | TGI (SF-268 CNS): > 100 µM

CN(/N=C/c1cccc2cccnc12)c1ccccc1
TGI (COLO 205 colon): > 100 µM | TGI (SK-MEL-28 melanoma): > 100 µM | TGI (MALME-3M melanoma): > 100 µM | TGI (SK-OV-3 ovarian): > 100 µM | TGI (K-562 leukemia): > 100 µM | TGI (ACHN renal): > 100 µM | TGI (SF-268 CNS): > 100 µM
